pIC50: −log10 of the molar value.
Legend:
[1] = target: IRAK4 (Homo sapiens (Human), UniProt Q9NWZ3); test: IRAK4 enzymatic assay; assay type: biochemical
Description: IRAK4 is a human purified recombinant enzyme ([…]. IRAK4 hydrolyses ATP, autophosphorylates and phosphorylates a Serine/Threonine generic peptidic substrate (STK: 61ST1BLC from CisBio International based in Bagnols/Cèze FR).
Measurement of IRAK-4 inhibition was performed in streptavidin coated 384well FlashPlate (PerkinElmer #SMP410A). His-TEV-IRAK4 (20 ng/well), ATP (2 μM, [^33P]ATP 0.25 µCi/well), STK1-biotin peptide (300 nM) and compounds in DMSO (range of concentrations from 20 µM to 1 nM) or controls (2% DMSO) were incubated for 3 hours at 30° C. in assay buffer: Hepes pH7.0 50 mM, Fatty acid-free BSA 0.1%, Dithiothreitol DTT 2 mM, MgCl2 10 mM, EGTA 0.5 mM, Tween-20 0.01%, MnCl2 5 mM.
Kinase reaction was stopped by addition of EDTA. Supernatant was discarded, plates were washed three times with 150 mM NaCl and radioactivity was then measured in a Microbeta Trilux reader.

[2] = target: IRAK1 (His-TEV-IRAK1 (194-712)) (Homo sapiens (Human), UniProt P51617); test: IRAK1 enzymatic assay; assay type: biochemical
Sequence of IRAK1 (His-TEV-IRAK1 (194-712)) (P51617 194-712): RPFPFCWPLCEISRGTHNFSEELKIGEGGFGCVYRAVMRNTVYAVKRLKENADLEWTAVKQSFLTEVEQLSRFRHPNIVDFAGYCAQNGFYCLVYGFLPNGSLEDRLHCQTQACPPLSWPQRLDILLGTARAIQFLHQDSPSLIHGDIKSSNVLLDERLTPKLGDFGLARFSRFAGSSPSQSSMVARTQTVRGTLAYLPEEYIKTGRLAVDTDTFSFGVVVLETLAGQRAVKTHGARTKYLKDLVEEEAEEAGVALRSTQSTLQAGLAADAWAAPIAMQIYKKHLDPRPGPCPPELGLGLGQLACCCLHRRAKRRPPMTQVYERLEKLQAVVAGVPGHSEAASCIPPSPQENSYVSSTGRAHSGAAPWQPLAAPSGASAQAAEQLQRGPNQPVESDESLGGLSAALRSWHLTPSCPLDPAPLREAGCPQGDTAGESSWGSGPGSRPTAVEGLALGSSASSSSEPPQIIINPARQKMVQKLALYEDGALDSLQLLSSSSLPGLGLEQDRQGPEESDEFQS
Description: IRAK1 is a human purified recombinant enzyme (His-TEV-IRAK1 (194-712)). In this assay, IRAK-1 hydrolyses ATP and autophosphorylates. Measurement of IRAK-1 inhibition was performed in streptavidin coated 384well FlashPlate (PerkinElmer #SMP410A).
His-TEV-IRAK-1 (15 ng/well), ATP (1 μM, [33P]ATP 0.25 μCi/well) and compounds in DMSO (range of concentrations from 20 µM to 1 nM) or controls (2% DMSO) were incubated for 3 hours at 30° C. in assay buffer: Hepes pH7.0 50 mM, Fatty acid-free BSA 0.1%, Dithiothreitol DTT 2 mM, MgCl2 10 mM, EGTA 0.5 mM, Triton-X-100 0.01%. Kinase reaction was stopped by addition of EDTA. Supernatant was discarded, plates were washed three times with 150 mM NaCl and radioactivity was then measured in a Microbeta Trilux reader.

Sequence of IRAK4 (Q9NWZ3 whole entry): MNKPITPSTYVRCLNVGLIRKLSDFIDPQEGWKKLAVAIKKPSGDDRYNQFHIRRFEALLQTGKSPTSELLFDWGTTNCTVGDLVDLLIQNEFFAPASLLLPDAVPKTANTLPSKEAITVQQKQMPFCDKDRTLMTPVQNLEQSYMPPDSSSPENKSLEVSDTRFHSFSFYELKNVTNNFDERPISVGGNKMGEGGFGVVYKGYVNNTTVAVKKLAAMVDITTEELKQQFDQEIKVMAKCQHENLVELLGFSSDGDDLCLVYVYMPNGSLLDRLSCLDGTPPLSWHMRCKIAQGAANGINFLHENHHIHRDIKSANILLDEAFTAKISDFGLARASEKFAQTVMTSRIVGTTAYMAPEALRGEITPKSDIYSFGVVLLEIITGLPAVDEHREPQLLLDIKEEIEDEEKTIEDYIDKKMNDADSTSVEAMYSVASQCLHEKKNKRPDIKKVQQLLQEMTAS

| Structure (SMILES) | pIC50 [1] | pIC50 [2] |
| --- | --- | --- |
| CC(=O)NCCNc1nc(-c2cccc(-c3cnn(C)c3)c2)ncc1-c1ccn(C)n1 [Example 73] | 5.30 to 6.00 | 5.30 to 6.00 |
| Cn1cc(-c2cccc(-c3ncc(-c4ccn(C)n4)c(NCC4CCNC(=O)C4)n3)c2)cn1 (stereo not drawn) [Example 74] | 6.00 to 7.00 | 5.30 to 6.00 |
| Cn1cc(-c2cccc(-c3ncc(-c4ccn(C)n4)c(NCCCN4CCOCC4)n3)c2)cn1 [Example 75] | < 5.30 | < 5.30 |
| Cn1cc(-c2cccc(-c3ncc(-c4cnn(C)c4)c(NCCCN4CCOC4=O)n3)c2)cn1 [Example 78] | 6.00 to 7.00 | 5.30 to 6.00 |
| Cn1cc(-c2cccc(-c3ncc(-c4ccn(C)n4)c(N[C@H]4C[C@@H](S(C)(=O)=O)C4)n3)c2)cn1 [Example 79] | 6.00 to 7.00 | 6.00 to 7.00 |
| Cn1cc(-c2cccc(-c3ncc(-c4ccn(C)n4)c(NC4CC(F)C4)n3)c2)cn1 (stereo not drawn) [Example 80] | 6.00 to 7.00 | < 5.30 |
| Cn1cc(-c2cccc(-c3ncc(-c4ccn(C)n4)c(NC4CC(O)C4)n3)c2)cn1 (stereo not drawn) [Example 82] | 6.00 to 7.00 | 5.30 to 6.00 |
| Cn1cc(-c2cccc(-c3ncc(-c4cnn(C)c4)c(NCCCCN)n3)c2)cn1 [Example 88] | 6.00 to 7.00 | < 5.30 |
| Cn1cc(-c2cccc(-c3ncc(-c4cnn(C)c4)c(NCCCN)n3)c2)cn1 [Example 89] | 5.30 to 6.00 | < 5.30 |
| Cn1cc(-c2cccc(-c3ncc(-c4ccn(C)n4)c(NC4CC(F)(F)C4)n3)c2)cn1 [Example 90] | < 5.30 | < 5.30 |
| Cn1cc(-c2cccc(-c3ncc(-c4ccn(C)n4)c(NCCN4CCOC4=O)n3)c2)cn1 [Example 91] | < 5.30 | < 5.30 |
| Cn1cc(-c2cccc(-c3ncc(-c4cnn(C)c4)c(NC4(CO)COC4)n3)c2)cn1 [Example 92] | < 5.30 | < 5.30 |
| Cn1cc(-c2cccc(-c3ncc(-c4cnn(C)c4)c(NCCO)n3)c2)cn1 [Example 96] | > 7.00 | 5.30 to 6.00 |
| Cn1cc(-c2cccc(-c3ncc(-c4ccn(C)n4)c(NC4CC5(CC(N)C5)C4)n3)c2)cn1 (stereo not drawn) [Example 98] | 6.00 to 7.00 | 5.30 to 6.00 |
| Cn1cc(-c2cccc(-c3ncc(-c4ccn(C)n4)c(NCCO)n3)c2)cn1 [Example 100] | 6.00 to 7.00 | 5.30 to 6.00 |
| Cn1cc(-c2cccc(-c3ncc(-c4ccn(C)n4)c(NC4CCC(=O)NC4)n3)c2)cn1 (stereo not drawn) [Example 102] | 6.00 to 7.00 | 5.30 to 6.00 |
| Cn1cc(-c2cccc(-c3ncc(-c4cnn(C)c4)c(NC4CCC(=O)NC4)n3)c2)cn1 (stereo not drawn) [Example 103] | > 7.00 | 5.30 to 6.00 |
| Cn1cc(-c2cccc(-c3ncc(-c4ccn(C)n4)c(NC[C@H]4CCNC4)n3)c2)cn1 [Example 104] | 6.00 to 7.00 | 5.30 to 6.00 |
| CN1CCOC(CNc2nc(-c3cccc(-c4cnn(C)c4)c3)ncc2-c2cnn(C)c2)C1 (stereo not drawn) [Example 105] | 6.00 to 7.00 | < 5.30 |
| Cn1cc(-c2cccc(-c3ncc(-c4nnc(C(=O)N5CC[C@@H](O)C5)s4)c(NCC4CNC4)n3)c2)cn1 [Example 106] | > 7.00 | < 5.30 |
| CC(=O)NCCCNc1nc(-c2cccc(-c3cnn(C)c3)c2)ncc1-c1cnn(C)c1 [Example 109] | 6.00 to 7.00 | < 5.30 |
| Cn1cc(-c2cccc(-c3ncc(-c4cnn(C)c4)c(NCCN4CCC(O)CC4)n3)c2)cn1 [Example 110] | 5.30 to 6.00 | < 5.30 |
| Cn1cc(-c2cccc(-c3ncc(-c4ccn(C)n4)c(N[C@H]4CC[C@@H](N)CC4)n3)c2)cn1 [Example 111] | > 7.00 | 6.00 to 7.00 |
| Cn1cc(-c2cccc(-c3ncc(-c4ccn(C)n4)c(NCC4(O)CCNCC4(C)C)n3)c2)cn1 (stereo not drawn) [Example 114] | 6.00 to 7.00 | 5.30 to 6.00 |
| Cn1cc(-c2cccc(-c3ncc(-c4ccn(C)n4)c(N[C@H]4CCNC4)n3)c2)cn1 [Example 117] | 6.00 to 7.00 | < 5.30 |
| Cn1cc(-c2cccc(-c3ncc(-c4ccn(C)n4)c(NC[C@H](O)CO)n3)c2)cn1 [Example 120] | 6.00 to 7.00 | 6.00 to 7.00 |
| Cn1cc(-c2cccc(-c3ncc(-c4cnn(C)c4)c(N[C@H]4CCNC4)n3)c2)cn1 [Example 121] | 6.00 to 7.00 | < 5.30 |

From US9790221B2, “Heteroaryl compounds as IRAK inhibitors and uses thereof” (Merck Patent GmbH, priority 2014, dated 2017)
